Test results as given in BindingDB's records for doi:10.1016/j.ejmech.2019.02.016 (National Health Research Institutes, 2019).

experiment: Inhibition of NS5A in HCV genotype 1b infected in human HuH7 replicon cells assessed as reduction in subgenomic viral RNA replication treated for 2 days followed by compound washout and subsequent compound dosing measured after 1 day by SEAP reporter gene assay

EC50 | Structure (SMILES)
41 nM | COC(=O)N[C@H](C(=O)N1CCC[C@H]1c1ncc(-c2ccc(-c3ccc(-c4cnc([C@@H]5CCCN5C(=O)[C@@H](NC(=O)OC)c5ccccc5)s4)cc3)cc2)s1)c1ccccc1
> 50000 nM | O=C(N[C@@H](C(=O)N1CCC[C@H]1c1ncc(-c2ccc(-c3ccc(-c4cnc([C@@H]5CCCN5C(=O)[C@H](NC(=O)C5CC5)C5CCCCC5)s4)cc3)cc2)s1)C1CCCCC1)C1CC1
2.6 nM | O=C(CCN1CCOCC1)N[C@H](C(=O)N1CCC[C@H]1c1ncc(-c2ccc(-c3ccc(-c4cnc([C@@H]5CCCN5C(=O)[C@H](NC(=O)CCN5CCOCC5)c5ccccc5)s4)cc3)cc2)s1)c1ccccc1
1.4 nM | O=C(N[C@@H](C(=O)N1CCC[C@H]1c1ncc(-c2ccc(-c3ccc(-c4cnc([C@@H]5CCCN5C(=O)[C@H](NC(=O)c5cccs5)c5ccccc5)s4)cc3)cc2)s1)c1ccccc1)c1cccs1
0.007 nM | O=C(N[C@@H](C(=O)N1CCC[C@H]1c1ncc(-c2ccc(-c3ccc(-c4cnc([C@@H]5CCCN5C(=O)[C@H](NC(=O)C5CCC5)c5ccccc5)s4)cc3)cc2)s1)c1ccccc1)C1CCC1
1.1 nM | O=C(N[C@H](C(=O)N1CCC[C@H]1c1ncc(-c2ccc(-c3ccc(-c4cnc([C@@H]5CCCN5C(=O)[C@H](NC(=O)N5CCOCC5)c5ccccc5)s4)cc3)cc2)s1)c1ccccc1)N1CCOCC1
40 nM | O=C(N[C@H](C(=O)N1CCC[C@H]1c1ncc(-c2ccc(-c3ccc(-c4cnc([C@@H]5CCCN5C(=O)[C@H](NC(=O)C5CCCCC5)c5ccccc5)s4)cc3)cc2)s1)c1ccccc1)C1CCCCC1
7.2 nM | CN1CCN(CCC(=O)N[C@@H](C(=O)N2CCC[C@H]2c2ncc(-c3ccc(-c4ccc(-c5cnc([C@@H]6CCCN6C(=O)[C@H](NC(=O)CCN6CCN(C)CC6)c6ccccc6)s5)cc4)cc3)s2)c2ccccc2)CC1
108 nM | COC(=O)N[C@H](C(=O)N1CCC[C@H]1c1ncc(-c2ccc(-c3ccc(-c4cnc([C@@H]5CCCN5C(=O)[C@H](NC(=O)OC)c5ccccc5)s4)cc3)cc2)s1)c1ccccc1
0.19 nM | COC(=O)N[C@@H](C(=O)N1CCC[C@H]1c1ncc(-c2ccc(-c3ccc(-c4cnc([C@@H]5CCCN5C(=O)[C@H](NC(=O)OC)c5ccccc5)s4)cc3)cc2)s1)c1ccccc1
327 nM | CCOC(=O)N[C@H](C(=O)N1CCC[C@H]1c1ncc(-c2ccc(-c3ccc(-c4cnc([C@@H]5CCCN5C(=O)[C@@H](NC(=O)OCC)C(C)C)s4)cc3)cc2)s1)C(C)C
159 nM | COC(=O)N[C@@H](C)C(=O)N1CCC[C@H]1c1ncc(-c2ccc(-c3ccc(-c4cnc([C@@H]5CCCN5C(=O)[C@H](C)NC(=O)OC)s4)cc3)cc2)s1
123 nM | CCC[C@H](NC(=O)OC)C(=O)N1CCC[C@H]1c1ncc(-c2ccc(-c3ccc(-c4cnc([C@@H]5CCCN5C(=O)[C@H](CCC)NC(=O)OC)s4)cc3)cc2)s1
179 nM | COC(=O)N[C@@H](CC(C)C)C(=O)N1CCC[C@H]1c1ncc(-c2ccc(-c3ccc(-c4cnc([C@@H]5CCCN5C(=O)[C@H](CC(C)C)NC(=O)OC)s4)cc3)cc2)s1
27 nM | CC(C)C[C@@H](NC(=O)C1CC1)C(=O)N1CCC[C@H]1c1ncc(-c2ccc(-c3ccc(-c4cnc([C@@H]5CCCN5C(=O)[C@@H](CC(C)C)NC(=O)C5CC5)s4)cc3)cc2)s1
732 nM | CC(C)[C@@H](NC(=O)C1CC1)C(=O)N1CCC[C@H]1c1ncc(-c2ccc(-c3ccc(-c4cnc([C@@H]5CCCN5C(=O)[C@H](NC(=O)C5CC5)C(C)C)s4)cc3)cc2)s1
92 nM | CCC[C@@H](NC(=O)C1CC1)C(=O)N1CCC[C@H]1c1ncc(-c2ccc(-c3ccc(-c4cnc([C@@H]5CCCN5C(=O)[C@@H](CCC)NC(=O)C5CC5)s4)cc3)cc2)s1
433 nM | CC[C@@H](NC(=O)C1CC1)C(=O)N1CCC[C@H]1c1ncc(-c2ccc(-c3ccc(-c4cnc([C@@H]5CCCN5C(=O)[C@@H](CC)NC(=O)C5CC5)s4)cc3)cc2)s1
16 nM | O=C(CCN1CCCCC1)N[C@H](C(=O)N1CCC[C@H]1c1ncc(-c2ccc(-c3ccc(-c4cnc([C@@H]5CCCN5C(=O)[C@H](NC(=O)CCN5CCCCC5)c5ccccc5)s4)cc3)cc2)s1)c1ccccc1
23 nM | O=C(CCN1CCCC1)N[C@H](C(=O)N1CCC[C@H]1c1ncc(-c2ccc(-c3ccc(-c4cnc([C@@H]5CCCN5C(=O)[C@H](NC(=O)CCN5CCCC5)c5ccccc5)s4)cc3)cc2)s1)c1ccccc1
0.23 nM | O=C(CCn1cccc1)N[C@H](C(=O)N1CCC[C@H]1c1ncc(-c2ccc(-c3ccc(-c4cnc([C@@H]5CCCN5C(=O)[C@H](NC(=O)CCn5cccc5)c5ccccc5)s4)cc3)cc2)s1)c1ccccc1
1.9 nM | O=C(N[C@H](C(=O)N1CCC[C@H]1c1ncc(-c2ccc(-c3ccc(-c4cnc([C@@H]5CCCN5C(=O)[C@H](NC(=O)N5CCCCC5)c5ccccc5)s4)cc3)cc2)s1)c1ccccc1)N1CCCCC1
1.3 nM | O=C(N[C@H](C(=O)N1CCC[C@H]1c1ncc(-c2ccc(-c3ccc(-c4cnc([C@@H]5CCCN5C(=O)[C@H](NC(=O)N5CCCC5)c5ccccc5)s4)cc3)cc2)s1)c1ccccc1)N1CCCC1

EC50 | Structure (SMILES)
110 nM | O=C(N[C@H](C(=O)N1CCC[C@H]1c1ncc(-c2ccc(-c3ccc(-c4cnc([C@@H]5CCCN5C(=O)[C@H](NC(=O)c5cccs5)c5ccccc5)s4)cc3)cc2)s1)c1ccccc1)c1cccs1
0.63 nM | O=C(N[C@H](C(=O)N1CCC[C@H]1c1ncc(-c2ccc(-c3ccc(-c4cnc([C@@H]5CCCN5C(=O)[C@H](NC(=O)c5ccoc5)c5ccccc5)s4)cc3)cc2)s1)c1ccccc1)c1ccoc1
1.7 nM | O=C(N[C@H](C(=O)N1CCC[C@H]1c1ncc(-c2ccc(-c3ccc(-c4cnc([C@@H]5CCCN5C(=O)[C@H](NC(=O)c5ccco5)c5ccccc5)s4)cc3)cc2)s1)c1ccccc1)c1ccco1
2.1 nM | O=C(N[C@H](C(=O)N1CCC[C@H]1c1ncc(-c2ccc(-c3ccc(-c4cnc([C@@H]5CCCN5C(=O)[C@H](NC(=O)c5cccnc5)c5ccccc5)s4)cc3)cc2)s1)c1ccccc1)c1cccnc1
272 nM | O=C(N[C@H](C(=O)N1CCC[C@H]1c1ncc(-c2ccc(-c3ccc(-c4cnc([C@@H]5CCCN5C(=O)[C@H](NC(=O)c5ccccc5)c5ccccc5)s4)cc3)cc2)s1)c1ccccc1)c1ccccc1
0.45 nM | O=C(N[C@H](C(=O)N1CCC[C@H]1c1ncc(-c2ccc(-c3ccc(-c4cnc([C@@H]5CCCN5C(=O)[C@H](NC(=O)C5CCC5)c5ccccc5)s4)cc3)cc2)s1)c1ccccc1)C1CCC1
1.5 nM | O=C(N[C@H](C(=O)N1CCC[C@H]1c1ncc(-c2ccc(-c3ccc(-c4cnc([C@@H]5CCCN5C(=O)[C@H](NC(=O)C5CC5)c5ccccc5)s4)cc3)cc2)s1)c1ccccc1)C1CC1
52 nM | CC(C)(C)C(=O)N[C@H](C(=O)N1CCC[C@H]1c1ncc(-c2ccc(-c3ccc(-c4cnc([C@@H]5CCCN5C(=O)[C@H](NC(=O)C(C)(C)C)c5ccccc5)s4)cc3)cc2)s1)c1ccccc1
7.6 nM | CCCCC(=O)N[C@H](C(=O)N1CCC[C@H]1c1ncc(-c2ccc(-c3ccc(-c4cnc([C@@H]5CCCN5C(=O)[C@H](NC(=O)CCCC)c5ccccc5)s4)cc3)cc2)s1)c1ccccc1
0.77 nM | CCCC(=O)N[C@H](C(=O)N1CCC[C@H]1c1ncc(-c2ccc(-c3ccc(-c4cnc([C@@H]5CCCN5C(=O)[C@H](NC(=O)CCC)c5ccccc5)s4)cc3)cc2)s1)c1ccccc1
0.85 nM | CCC(=O)N[C@H](C(=O)N1CCC[C@H]1c1ncc(-c2ccc(-c3ccc(-c4cnc([C@@H]5CCCN5C(=O)[C@H](NC(=O)CC)c5ccccc5)s4)cc3)cc2)s1)c1ccccc1
1 nM | CCN(CC)CCC(=O)N[C@@H](C(=O)N1CCC[C@H]1c1ncc(-c2ccc(-c3ccc(-c4cnc([C@@H]5CCCN5C(=O)[C@H](NC(=O)CCN(CC)CC)c5ccccc5)s4)cc3)cc2)s1)c1ccccc1
2.5 nM | CN(C)CCC(=O)N[C@@H](C(=O)N1CCC[C@H]1c1ncc(-c2ccc(-c3ccc(-c4cnc([C@@H]5CCCN5C(=O)[C@H](NC(=O)CCN(C)C)c5ccccc5)s4)cc3)cc2)s1)c1ccccc1
0.016 nM | O=C(N[C@@H](C(=O)N1CCC[C@H]1c1ncc(-c2ccc(-c3ccc(-c4cnc([C@@H]5CCCN5C(=O)[C@H](NC(=O)N5CCCCC5)c5ccccc5)s4)cc3)cc2)s1)c1ccccc1)N1CCCCC1
0.035 nM | O=C(N[C@@H](C(=O)N1CCC[C@H]1c1ncc(-c2ccc(-c3ccc(-c4cnc([C@@H]5CCCN5C(=O)[C@H](NC(=O)N5CCCC5)c5ccccc5)s4)cc3)cc2)s1)c1ccccc1)N1CCCC1
0.53 nM | O=C(N[C@@H](C(=O)N1CCC[C@H]1c1ncc(-c2ccc(-c3ccc(-c4cnc([C@@H]5CCCN5C(=O)[C@H](NC(=O)c5ccsc5)c5ccccc5)s4)cc3)cc2)s1)c1ccccc1)c1ccsc1
0.07 nM | O=C(N[C@@H](C(=O)N1CCC[C@H]1c1ncc(-c2ccc(-c3ccc(-c4cnc([C@@H]5CCCN5C(=O)[C@H](NC(=O)c5ccco5)c5ccccc5)s4)cc3)cc2)s1)c1ccccc1)c1ccco1
46 nM | O=C(N[C@@H](C(=O)N1CCC[C@H]1c1ncc(-c2ccc(-c3ccc(-c4cnc([C@@H]5CCCN5C(=O)[C@H](NC(=O)c5ccccn5)c5ccccc5)s4)cc3)cc2)s1)c1ccccc1)c1ccccn1
21 nM | O=C(N[C@@H](C(=O)N1CCC[C@H]1c1ncc(-c2ccc(-c3ccc(-c4cnc([C@@H]5CCCN5C(=O)[C@H](NC(=O)c5ccccc5)c5ccccc5)s4)cc3)cc2)s1)c1ccccc1)c1ccccc1
0.25 nM | O=C(N[C@@H](C(=O)N1CCC[C@H]1c1ncc(-c2ccc(-c3ccc(-c4cnc([C@@H]5CCCN5C(=O)[C@H](NC(=O)C5CCCCC5)c5ccccc5)s4)cc3)cc2)s1)c1ccccc1)C1CCCCC1
0.006 nM | O=C(N[C@@H](C(=O)N1CCC[C@H]1c1ncc(-c2ccc(-c3ccc(-c4cnc([C@@H]5CCCN5C(=O)[C@H](NC(=O)C5CCCC5)c5ccccc5)s4)cc3)cc2)s1)c1ccccc1)C1CCCC1
1.4 nM | CC(C)(C)C(=O)N[C@@H](C(=O)N1CCC[C@H]1c1ncc(-c2ccc(-c3ccc(-c4cnc([C@@H]5CCCN5C(=O)[C@H](NC(=O)C(C)(C)C)c5ccccc5)s4)cc3)cc2)s1)c1ccccc1
0.063 nM | CCCCCC(=O)N[C@@H](C(=O)N1CCC[C@H]1c1ncc(-c2ccc(-c3ccc(-c4cnc([C@@H]5CCCN5C(=O)[C@H](NC(=O)CCCCC)c5ccccc5)s4)cc3)cc2)s1)c1ccccc1

Structure (SMILES) | EC50
CC(C)[C@H](NC(=O)Oc1ccccc1)C(=O)N1CCC[C@H]1c1ncc(-c2ccc(-c3ccc(-c4cnc([C@@H]5CCCN5C(=O)[C@@H](NC(=O)Oc5ccccc5)C(C)C)s4)cc3)cc2)s1 | 2820 nM
